Assay results taken from patent US12540143B2, “Methods and compositions for targeted protein degradation” (Ranok Therapeutics (Hangzhou) Co. Ltd., priority 2019, dated 2026).
Counter-ions that a name gives are not always drawn. Like-named read-outs stand apart in the source and are kept apart here.

Tested on: MV4-11 cells
Assay: MV4-11 Cytotoxicity Assay
Assay type: cell-based, human
Details: read-out: MV4-11 cytotoxicity
[1] = Homo sapiens, MV4-11, 72 hr, CCK-8

Compound | IC50 [1] [nM] | further results
CCc1cc(-c2nnc(C(=O)NC(C)C)n2-c2ccc(CN3CCN(CC4CCN(C(=O)C[C@@H]5N=C(c6ccc(Cl)cc6)c6c(sc(C)c6C)-n6c(C)nnc65)CC4)CC3)cc2)c(O)cc1O [Compound 105, (S)-4-(4-((4-((1-(2-(4-(4-chlorophenyl)-2,3,9-trimethyl-6H-thieno[3,2-f][1,2,4]triazolo[4,3-a][1,4]diazepin-6-yl)acetyl)piperidin-4-yl)methyl)piperazin-1-yl)methyl)phenyl)-5-(5-ethyl-2,4-dihydroxyphenyl)-N-isopropyl-4H-1,2,4-triazole-3-carboxamide, trifluoroacetic acid] | < 100 | 
CCc1cc(-c2nnc(C(N)=O)n2-c2ccc(CN3CCN(CC4CCN(C(=O)C[C@@H]5N=C(c6ccc(Cl)cc6)c6c(sc(C)c6C)-n6c(C)nnc65)CC4)CC3)cc2)c(O)cc1O [Compound 106, (S)-4-(4-((4-((1-(2-(4-(4-chlorophenyl)-2,3,9-trimethyl-6H-thieno[3,2-f][1,2,4]triazolo[4,3-a][1,4]diazepin-6-yl)acetyl)piperidin-4-yl)methyl)piperazin-1-yl)methyl)phenyl)-5-(5-ethyl-2,4-dihydroxyphenyl)-4H-1,2,4-triazole-3-carboxamide, trifluoroacetic acid] |  | IC50 (Homo sapiens, MV4-11, 72 h): < 100 nM
Cc1sc2c(c1C)C(c1ccc(Cl)cc1)=N[C@@H](CC(=O)N1CCC(CN3CCN(Cc4ccc(-n5c(C(=O)NCCN6CCCCC6)nnc5-c5cc(C(C)C)c(O)cc5O)cc4)CC3)CC1)c1nnc(C)n1-2 [Compound 107, (S)-4-(4-((4-((1-(2-(4-(4-chlorophenyl)-2,3,9-trimethyl-6H-thieno[3,2-f][1,2,4]triazolo[4,3-a][1,4]diazepin-6-yl)acetyl)piperidin-4-yl)methyl)piperazin-1-yl)methyl)phenyl)-5-(2,4-dihydroxy-5-isopropylphenyl)-N-(2-(piperidin-1-yl)ethyl)-4H-1,2,4-triazole-3-carboxamide, trifluoroacetic acid] | < 100 | 
Cc1sc2c(c1C)C(c1ccc(Cl)cc1)=N[C@@H](CC(=O)N1CCC(CN3CCN(Cc4ccc(-n5c(C(=O)NC(C)C)nnc5-c5cc(C(C)C)c(O)cc5O)cc4)CC3)CC1)c1nnc(C)n1-2 [Compound 108, (S)-4-(4-((4-((1-(2-(4-(4-chlorophenyl)-2,3,9-trimethyl-6H-thieno[3,2-f][1,2,4]triazolo[4,3-a][1,4]diazepin-6-yl)acetyl)piperidin-4-yl)methyl)piperazin-1-yl)methyl)phenyl)-5-(2,4-dihydroxy-5-isopropylphenyl)-N-isopropyl-4H-1,2,4-triazole-3-carboxamide, trifluoroacetic acid] | 100 to 1000 | 
Cc1sc2c(c1C)C(c1ccc(Cl)cc1)=N[C@@H](CC(=O)N1CCC(CN3CCN(Cc4ccc(-n5c(C(N)=O)nnc5-c5cc(C(C)C)c(O)cc5O)cc4)CC3)CC1)c1nnc(C)n1-2 [Compound 109, (S)-4-(4-((4-((1-(2-(4-(4-chlorophenyl)-2,3,9-trimethyl-6H-thieno[3,2-f][1,2,4]triazolo[4,3-a][1,4]diazepin-6-yl)acetyl)piperidin-4-yl)methyl)piperazin-1-yl)methyl)phenyl)-5-(2,4-dihydroxy-5-isopropylphenyl)-4H-1,2,4-triazole-3-carboxamide, trifluoroacetic acid] | < 100 | 
Cc1sc2c(c1C)C(c1ccc(Cl)cc1)=N[C@@H](CC(=O)N1CCC(CN3CCN(Cc4ccc(-n5c(C(=O)NCCN6CCCCC6)nnc5-c5ccc(O)cc5O)cc4)CC3)CC1)c1nnc(C)n1-2 [Compound 110, (S)-4-(4-((4-((1-(2-(4-(4-chlorophenyl)-2,3,9-trimethyl-6H-thieno[3,2-f][1,2,4]triazolo[4,3-a][1,4]diazepin-6-yl)acetyl)piperidin-4-yl)methyl)piperazin-1-yl)methyl)phenyl)-5-(2,4-dihydroxyphenyl)-N-(2-(piperidin-1-yl)ethyl)-4H-1,2,4-triazole-3-carboxamide, trifluoroacetic acid] | 100 to 1000 | 
CCN(CC)CCNC(=O)c1nnc(-c2ccc(O)cc2O)n1-c1ccc(CN2CCN(CC3CCN(C(=O)C[C@@H]4N=C(c5ccc(Cl)cc5)c5c(sc(C)c5C)-n5c(C)nnc54)CC3)CC2)cc1 [Compound 111, (S)-4-(4-((4-((1-(2-(4-(4-chlorophenyl)-2,3,9-trimethyl-6H-thieno[3,2-f][1,2,4]triazolo[4,3-a][1,4]diazepin-6-yl)acetyl)piperidin-4-yl)methyl)piperazin-1-yl)methyl)phenyl)-N-(2-(diethylamino)ethyl)-5-(2,4-dihydroxyphenyl)-4H-1,2,4-triazole-3-carboxamide, trifluoroacetic acid] | < 100 | 
Cc1sc2c(c1C)C(c1ccc(Cl)cc1)=N[C@@H](CC(=O)N1CCC(CN3CCN(Cc4ccc(-n5c(C(N)=O)nnc5-c5ccc(O)cc5O)cc4)CC3)CC1)c1nnc(C)n1-2 [Compound 112, (S)-4-(4-((4-((1-(2-(4-(4-chlorophenyl)-2,3,9-trimethyl-6H-thieno[3,2-f][1,2,4]triazolo[4,3-a][1,4]diazepin-6-yl)acetyl)piperidin-4-yl)methyl)piperazin-1-yl)methyl)phenyl)-5-(2,4-dihydroxyphenyl)-4H-1,2,4-triazole-3-carboxamide, trifluoroacetic acid] | < 100 | 
CCc1cc(-c2nnc(C(=O)NCCN3CCCCC3)n2-c2ccc(CN3CCN(CC4CCN(C(=O)C[C@@H]5N=C(c6ccc(Cl)cc6)c6c(sc(C)c6C)-n6c(C)nnc65)CC4)CC3)cc2)c(O)cc1O [Compound 117, (S)-4-(4-((4-((1-(2-(4-(4-chlorophenyl)-2,3,9-trimethyl-6H-thieno[3,2-f][1,2,4]triazolo[4,3-a][1,4]diazepin-6-yl)acetyl)piperidin-4-yl)methyl)piperazin-1-yl)methyl)phenyl)-5-(5-ethyl-2,4-dihydroxyphenyl)-N-(2-(piperidin-1-yl)ethyl)-4H-1,2,4-triazole-3-carboxamide, trifluoroacetic acid] | < 100 | 
CCN(CC)CCNC(=O)c1nnc(-c2cc(C(C)C)c(O)cc2O)n1-c1ccc(CN2CCN(CC3CCN(C(=O)C[C@@H]4N=C(c5ccc(Cl)cc5)c5c(sc(C)c5C)-n5c(C)nnc54)CC3)CC2)cc1 [Compound 118, (S)-4-(4-((4-((1-(2-(4-(4-chlorophenyl)-2,3,9-trimethyl-6H-thieno[3,2-f][1,2,4]triazolo[4,3-a][1,4]diazepin-6-yl)acetyl)piperidin-4-yl)methyl)piperazin-1-yl)methyl)phenyl)-N-(2-(diethylamino)ethyl)-5-(2,4-dihydroxy-5-isopropylphenyl)-4H-1,2,4-triazole-3-carboxamide, trifluoroacetic acid] | < 100 | 
Cc1sc2c(c1C)C(c1ccc(Cl)cc1)=N[C@@H](CC(=O)N1CCC(CN3CCN(Cc4ccc(-n5c(C(=O)NC(C)C)nnc5-c5ccc(O)cc5O)cc4)CC3)CC1)c1nnc(C)n1-2 [Compound 119, (S)-4-(4-((4-((1-(2-(4-(4-chlorophenyl)-2,3,9-trimethyl-6H-thieno[3,2-f][1,2,4]triazolo[4,3-a][1,4]diazepin-6-yl)acetyl)piperidin-4-yl)methyl)piperazin-1-yl)methyl)phenyl)-5-(2,4-dihydroxyphenyl)-N-isopropyl-4H-1,2,4-triazole-3-carboxamide, trifluoroacetic acid] | < 100 | 
CCc1cc(-c2nnc(C(N)=O)n2-c2ccc(CN3CCN(CC4CCN(C(=O)C[C@@H]5N=C(c6ccc(Cl)cc6)c6c(sc(C)c6C)-n6c(C)nnc65)CC4)CC3)cc2)c(O)cc1O [Compound 120, (S)-4-(4-((4-((1-(2-(4-(4-chlorophenyl)-2,3,9-trimethyl-6H-thieno[3,2-f][1,2,4]triazolo[4,3-a][1,4]diazepin-6-yl)acetyl)piperidin-4-yl)methyl)piperazin-1-yl)methyl)phenyl)-5-(5-ethyl-2,4-dihydroxyphenyl)-4H-1,2,4-triazole-3-carboxamide hydrochloride] |  | IC50 (72 hr, CCK-8): < 100 nM
CCc1cc(-c2nnc(C(N)=O)n2-c2ccc(CN3CCN(CC4CCN(C(=O)C[C@@H]5N=C(c6ccc(Cl)cc6)c6c(sc(C)c6C)-n6c(C)nnc65)CC4)CC3)cc2)c(O)cc1O [Compound 121, (S)-4-(4-((4-((1-(2-(4-(4-chlorophenyl)-2,3,9-trimethyl-6H-thieno[3,2-f][1,2,4]triazolo[4,3-a][1,4]diazepin-6-yl)acetyl)piperidin-4-yl)methyl)piperazin-1-yl)methyl)phenyl)-5-(5-ethyl-2,4-dihydroxyphenyl)-4H-1,2,4-triazole-3-carboxamide hydrochloride] |  | IC50 (72 hr, CCK-8): < 100 nM
CCCc1cc(-c2nnc(C(=O)NCCN3CCCCC3)n2-c2ccc(CN3CCN(CC4CCN(C(=O)C[C@@H]5N=C(c6ccc(Cl)cc6)c6c(sc(C)c6C)-n6c(C)nnc65)CC4)CC3)cc2)c(O)cc1O [Compound 123, (S)-4-(4-((4-((1-(2-(4-(4-chlorophenyl)-2,3,9-trimethyl-6H-thieno[3,2-f][1,2,4]triazolo[4,3-a][1,4]diazepin-6-yl)acetyl)piperidin-4-yl)methyl)piperazin-1-yl)methyl)phenyl)-5-(2,4-dihydroxy-5-propylphenyl)-N-(2-(piperidin-1-yl)ethyl)-4H-1,2,4-triazole-3-carboxamide, trifluoroacetic acid] | < 100 | 
Cc1cc(-c2nnc(C(=O)NCCN3CCCCC3)n2-c2ccc(CN3CCN(CC4CCN(C(=O)C[C@@H]5N=C(c6ccc(Cl)cc6)c6c(sc(C)c6C)-n6c(C)nnc65)CC4)CC3)cc2)c(O)cc1O [Compound 124, (S)-4-(4-((4-((1-(2-(4-(4-chlorophenyl)-2,3,9-trimethyl-6H-thieno[3,2-f][1,2,4]triazolo[4,3-a][1,4]diazepin-6-yl)acetyl)piperidin-4-yl)methyl)piperazin-1-yl)methyl)phenyl)-5-(2,4-dihydroxy-5-methylphenyl)-N-(2-(piperidin-1-yl)ethyl)-4H-1,2,4-triazole-3-carboxamide, trifluoroacetic acid] | < 100 | 
